The values below come from patent US11161845B2, “Pyrrolopyridine-aniline compounds for treatment of dermal disorders” (Nflection Therapeutics, Inc., priority 2017, dated 2021).

One series addresses T1, MEK1 (Homo sapiens, UniProt Q02750).
T1 construct: N-terminal His-tagged recombinant human full length protein; His (N); purchased Invitrogen PV3303; host or cells: insect cells
Description: MEK inhibition assay, Biological Example 1a (33P-ATP, P81 filter-binding). The conditions noted are these: read-out: Assay 1: biochemical MEK IC50. The protocol:
MEK1 inhibitory activity of compounds were tested using the following procedure. […] Activated in vitro by RAF1. MW=49.2 kDa, GenBank Accession No. NP_002746. • Substrate: 5 μM ERK2 (K52R), • Kinase-dead mutant, (GenBank Accession No. NM_0011949), aa2-358 with N-terminal His6 tag, MW=43.63 kDa, expressed in E. coli.
The substrate was prepared in freshly prepared Reaction Buffer. The kinase was delivered into the substrate solution and gently mixed. Test compounds were delivered in 100% DMSO into the kinase reaction mixture by Acoustic technology (Echo550; nanoliter range), and incubated for 20 min at room temperature. ^33P-ATP was delivered into the reaction mixture to initiate the reaction. The reaction mixture was incubated for 2 hours at room temperature. Kinase activity was detected by P81 filter-binding method.

The subject of another series is A375 cells. In words: A375 (BRAF) GI50 cell-based assay (Cell Titer-Glo). The conditions noted are these: Homo sapiens, A-375; 72 hours; read-out: Assay 2: A375 (BRAF) GI50. As for the experimental part:
(§1) Alternatively, the following procedure can be used to measure cell-based activity. Test compounds were dissolved in DMSO in 10 mM stock. Cell Titer-Glo® 2.0 Luminescent cell viability assay reagent was purchased from Promega (Madison, Wis.). A375 and HCT116 cell lines were purchased from American Type Culture Collection (Manassas, Va.). For A375 cells, cell culture media was DMEM+10% FBS. For HCT116 cells, cell culture media was McCoy's 5A+10% FBS. All media were supplemented with 100 μg/mL of penicillin, and 100 μg/mL of streptomycin. Cultures were maintained at 37° C. in a humidified atmosphere of 5% CO2 and 95% air.
(§2) Test compounds were diluted in DMSO solution with 10-dose and 3-fold dilutions in a source plate starting at 10 mM. 25 nL of each test compound was delivered from the source plate to each well of the 384-well cell culture plates (T=Final) by Echo 550. 25 μL of culture medium containing 2000 of A375 or HCT116 cells was added to each of the wells in duplicates of the cell culture plates (T=0 and T=Final). 25 μL of Cell Titer Glo 2.0 reagent was added to each well of cell culture plate (T=0). The contents were mixed on an orbital shaker for 2 min and incubated at room temperature for 15 min to stabilize luminescent signal. Luminescence was recorded by Envision 2104 Multilabel Reader (PerkinElmer, Santa Clara, Calif.). The number of viable cells in culture was determined based on quantitation of the ATP present in each culture well. The cells in cell culture plate (T=Final) were incubated with the compounds at 37° C., 5% CO2 for 72 hours. 25 μL of Cell Titer Glo 2.0 reagent was added to each well. The contents were mixed on an orbital shaker for 2 min and incubated at room temperature for 15 min to stabilize luminescent signal. Luminescence was recorded by Envision 2104 Multilabel Reader (PerkinElmer, Santa Clara, Calif.). The number of viable cells in culture was determined based on quantitation of the ATP present in each culture well. The G150 curves were plotted using the GraphPad Prism 4 program based on a sigmoidal dose-response equation Y=Bottom+(Top−Bottom)/(1+10^((Log EC50−X)*HillSlope)). All parameters in the equation were calculated by GraphPad Prism 4 program. […] Accordingly, GI50 is the value of 10^X, where X was calculated by the Curve Fitting Equation when Y=50 using Excel.

A further series relates to HCT116 cells. Description: HCT116 (Kras) GI50 cell-based assay (Cell Titer-Glo). The conditions noted are these: Homo sapiens, HCT-116; 72 hours; read-out: Assay 3: HCT116 (Kras) GI50. The protocol: as §1, §2
For orientation: In ATP-based viability assays light output follows the ATP content of the culture.

The nature of series [1]: S9 stability assay, human liver S9 fraction. The series is classed as in vitro ADME. The conditions noted are these: for half-life at 1 μM / microsomal CLint at 1 μM: pH 7.4. The protocol:
Compounds were assessed for metabolic stability in human skin by assessing their rate of disappearance from human S9 skin fraction. Similarly, compounds were assessed for metabolic stability in human liver by assessing their rate of disappearance from human S9 liver fraction. The protocol below can be used to assess the difference between skin and hepatic metabolism.
The assay was carried out in 96-well microtiter plates at 37° C. Reaction mixtures (25 μL) contained a final concentration of 1 μM test compound, 2 mg/mL liver or skin S9 protein, and 1 mM NADPH in buffer (100 mM potassium phosphate, pH 7.4 buffer with 1 mM EDTA, 3 mM MgCl2). At each of the time points (0, 15, 30, and 60 minutes), 150 μL of quench solution (100% acetonitrile with 0.1% formic acid) with internal standard was transferred to each well. Besides the zero minute controls, mixtures containing the same components except the NADPH were also prepared as the negative control. Verapamil or testosterone was included as a positive control to verify assay performance. Plates were sealed and centrifuged at 4° C. for 15 minutes at 4000 rpm. The supernatant was transferred to fresh plates for LC/MS/MS analysis.
All samples were analyzed on LC/MS/MS using an AB Sciex API 4000 instrument, coupled to a Shimadzu LC-20AD LC Pump system. Analytical samples were separated using a Waters Atlantis T3 dC18 reverse phase HPLC column (20 mm×2.1 mm) at a flow rate of 0.5 mL/min. The mobile phase consisted of 0.1% formic acid in water (solvent A) and 0.1% formic acid in 100% acetonitrile (solvent B).
The extent of metabolism was calculated as the disappearance of the test compound, compared to the 0-min control reaction incubations. Initial rates were calculated for the compound concentration and used to determine t1/2 values and subsequently, the intrinsic clearance, CLint=(0.693) (1/t1/2 (min)) (mL incubation/mg of S9 protein).

Another series addresses T2, MAP2K1 (MEK1) (Homo sapiens, UniProt Q02750).
T2 construct: purchased ThermoFisher
Description: MEK inhibition assay, Biological Example 1b (Z'-LYTE). The conditions noted are these: Biological Example 1b (compounds 8, 10, 12 and 13); read-out: Assay 1: biochemical MEK IC50. The protocol:
MEK1 inhibitory activity of compounds were tested using the following procedure (protocol available at thermofisher.com/content/dam/LifeTech/migration/files/drug-discovery/pdfs.par.60256.file.dat/20130430%20ssbk%20customer %20protocol%20and %20assay%20conditions.pdf). The Z′-LYTE biochemical assay (ThermoFisher) employs a fluorescence-based, coupled-enzyme format and is based on the differential sensitivity of phosphorylated and non-phosphorylated peptides to proteolytic cleavage.
Test compounds in 100% DMSO were screened in 1% DMSO (final) in the well. For 10 point titrations, 3-fold serial dilutions are conducted from the starting concentration of 30 μM.
After the 1 hour incubation, 5 μL of a 1:1024 dilution of Development Reagent A (available from Invitrogen, catalog no. PV3295) was added.
ATP solutions were diluted to a 4× working concentration in Kinase Buffer (50 mM HEPES pH 7.5, 0.01% BRIJ-35, 10 mM MgCl2, 1 mM EGTA). ATP Km apparent was previously determined using a Z′-LYTE assay. The Development Reagent was diluted in Development Buffer (available from Invitrogen, catalog no. P3127).
Assay Protocol: 2.5 μL of 4× test compound or 100 nL of 100× Test Compound plus 2.4 μL Kinase Buffer, 5 μL of the 2× Peptide/Kinase Mixture, 2.5 μL of 4×ATP Solution were added to the plates and placed on a shake plate for 30-seconds. The kinase reaction was allowed to proceed for 60-minute at room temperature, before 5 μL of Development Reagent Solution was added, and the mixture agitated for 30-seconds on a shake plate. The mixture was incubated for 60-minute at room temperature. Fluorescence was measured using a plate reader and the data were analyzed.
This control yielded 100% cleaved peptide in the Development Reaction. The 100% Phosphorylation Control, which consisted of a synthetically phosphorylated peptide of the same sequence as the peptide substrate, was designed to allow for the calculation of percent phosphorylation. This control yielded a very low percentage of cleaved peptide in the Development Reaction. The 0% Phosphorylation and 100% Phosphorylation Controls allow for the calculation of the percent phosphorylation achieved in a specific reaction well.
The minimum emission ratio in a screen was established by the 0% Inhibition Control, which contained active kinase. This control was designed to produce a 10-50% phosphorylated peptide in the Kinase Reaction. […]
A known inhibitor control standard curve, 10 point titration, was run for each individual kinase on the same plate as the kinase to ensure the kinase was inhibited within an expected IC50 range previously determined.
The following controls are prepared for each concentration of Test Compound assayed. […] The expected value for a non-fluorescence compound should be 0%. […]
The data in Table A was calculated. […]

[2] abbreviates: human, liver S9 fraction, Table 2, 1 μM, 2 mg/mL S9 protein, NADPH, read-out: Assay 4: human liver S9 half-life.
[3] abbreviates: human, liver S9 fraction, Table 2, 1 μM, 2 mg/mL S9 protein, NADPH, read-out: Assay 5: human liver S9 instrinsic clearance value.

Like-named read-outs stand apart in the source and are kept apart here.

T1 sequence (Q02750 whole entry): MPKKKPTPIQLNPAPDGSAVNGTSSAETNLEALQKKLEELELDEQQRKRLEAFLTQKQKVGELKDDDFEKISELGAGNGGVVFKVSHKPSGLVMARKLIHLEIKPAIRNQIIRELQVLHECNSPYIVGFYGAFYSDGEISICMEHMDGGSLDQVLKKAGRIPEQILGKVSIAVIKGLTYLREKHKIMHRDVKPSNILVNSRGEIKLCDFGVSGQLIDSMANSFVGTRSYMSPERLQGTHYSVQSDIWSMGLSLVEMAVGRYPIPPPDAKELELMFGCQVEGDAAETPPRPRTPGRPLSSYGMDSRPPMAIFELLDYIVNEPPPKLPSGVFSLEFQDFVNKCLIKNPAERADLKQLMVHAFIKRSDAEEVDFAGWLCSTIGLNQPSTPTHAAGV
T2 sequence (Q02750 whole entry): as above

The IC50 is the concentration needed to halve the response being measured. The GI50 is the concentration that inhibits growth by half. `Cn1c(Nc2ccc(I)cc2F)c(C(=O)NOC[C@H](O)CO)c2cccnc21` [Example 6, (R)—N-(2,3-Dihydroxypropoxy)-2-((2-fluoro-4-iodophenyl)amino)-1-methyl-1H-pyrrolo[2,3-b]pyridine-3-carboxamide]: at MEK1, the IC50 stood at 0.371 µM. The GI50 in the series with A375 cells turned out to be 0.081 µM; in the series on HCT116 cells it was 0.448 µM. Further, the half-life at 1 μM in series [1] (setting [2]) is 90 min. The microsomal CLint at 1 μM in series [1] (setting [3]) is 3.85 µL/min/mg.
In the case of `Cn1c(Nc2ccc(I)cc2F)c(C(=O)NC[C@H](O)CO)c2cccnc21` [Example 10, (S)—N-(2,3-dihydroxypropyl)-2-((2-fluoro-4-iodophenyl)amino)-1-methyl-1H-pyrrolo[2,3-b]pyridine-3-carboxamide], the IC50 on MAP2K1 (MEK1) is 1.77 µM. Also, in series [1] (setting [2]), the half-life at 1 μM was 96 min. In series [1] (setting [3]), the microsomal CLint at 1 μM was 3.59 µL/min/mg.
For the compound `Cn1c(Nc2ccc(I)cc2F)c(C(=O)NOCC2CC2)c2cccnc21` [Example 7, N-(Cyclopropylmethoxy)-2-((2-fluoro-4-iodophenyl)amino)-1-methyl-1H-pyrrolo[2,3-b]pyridine-3-carboxamide], the IC50 at MEK1 amounted to 0.26 µM. In addition, the 50% growth inhibitory concentration (GI50) in the series with A375 cells and with HCT116 cells was 0.346 µM each time. Further, the “Assay 5: human liver S9 instrinsic clearance value” in series [1] (Table 2, 1 μM, 2 mg/mL S9 protein, NADPH) is given as 44.80 μL/min/mg protein. Further, in series [1] (Table 1, human liver S9 fraction, read-out: CLint), the microsomal CLint at 1 μM was found to be 44.8 µL/min/mg. The half-life at 1 μM in series [1] (Table 1, human liver S9 fraction, read-out: Liver S9 t1/2) was 8 min.
Regarding `Cn1c(Nc2ccc(I)cc2F)c(C(=O)NC[C@@H](O)CO)c2cccnc21` [Example 12, (R)—N-(2,3-dihydroxypropyl)-2-((2-fluoro-4-iodophenyl)amino)-1-methyl-1H-pyrrolo[2,3-b]pyridine-3-carboxamide], on MAP2K1 (MEK1), the IC50 was 1.78 µM. Also, in series [1] (setting [2]), the half-life at 1 μM worked out at 105 min. Also, the microsomal CLint at 1 μM in series [1] (setting [3]) amounted to 3.29 µL/min/mg.
As to `Cn1c(Nc2ccc(I)cc2F)c(C(N)=O)c2cccnc21` [Example 13, 2-(2-Fluoro-4-iodoanilino)-1-methyl-1H-pyrrolo[2,3-b]pyridine-3-carboxamide], on MAP2K1 (MEK1), the IC50 is 9.61 µM. Moreover, the half-life at 1 μM in series [1] (setting [2]) was found to be 23 min. Besides, the microsomal CLint at 1 μM in series [1] (setting [3]) turned out to be 15.4 µL/min/mg.
As for `Cn1c(Nc2ccc(I)cc2F)c(C(=O)NO)c2cccnc21` [Example 4, 2-((2-Fluoro-4-iodophenyl)amino)—N-hydroxy-1-methyl-1H-pyrrolo[2,3-b]pyridine-3-carboxamide], the IC50 at MEK1 is 0.671 µM. Also, the values for the GI50 with A375 cells and with HCT116 cells were 0.809 µM and 5.01 µM, respectively. The half-life at 1 μM in series [1] (setting [2]) came out at 21 min. For the same compound, the microsomal CLint at 1 μM in series [1] (setting [3]) was 16.5 µL/min/mg.
Turning to `COc1cnc2c(c1)c(C(=O)NOCCO)c(Nc1ccc(I)cc1F)n2C` [Example 8, 2-((2-Fluoro-4-iodophenyl)amino)—N-(2-hydroxyethoxy)-5-methoxy-1-methyl-1H-pyrrolo[2,3-b]pyridine-3-carboxamide], the IC50 at MAP2K1 (MEK1) came to 0.243 µM. In addition, the half-life at 1 μM in series [1] (setting [2]) turned out to be 34 min. Further, the microsomal CLint at 1 μM in series [1] (setting [3]) worked out at 10.3 µL/min/mg.
